Reference: ChEMBL document CHEMBL5233274, “Current Landscape and Future Perspective of Oxazolidinone Scaffolds Containing Antibacterial Drugs” (J Med Chem, 2021)
In brackets after ≈: the same amount, converted by molar mass.

Assays:
Assay type in all cases: functional
Escherichia coli [1] = assay: Antibacterial activity against Escherichia coli assessed as inhibition of bacterial growth incubated for 18 hrs by CLSI protocol based method
Pseudomonas aeruginosa [2] = assay: Antibacterial activity against Pseudomonas aeruginosa assessed as inhibition of bacterial growth incubated for 18 hrs by CLSI protocol based method
Bacillus subtilis [3] = assay: Antibacterial activity against Bacillus subtilis assessed as zone of inhibition at 100 ug/ml; settings: read-out: IZ
Klebsiella pneumoniae = assay: Antibacterial activity against Klebsiella pneumoniae NCIM 5289 assessed as inhibition of bacterial growth incubated for 24 hrs by serial dilution method
Bacillus subtilis [4] = assay: Antibacterial activity against Bacillus subtilis NCIM 2097 assessed as inhibition of bacterial growth incubated for 24 hrs by serial broth dilution method
Enterococcus faecalis = assay: Antibacterial activity against Streptococcus faecalis NCIM 2080 assessed as inhibition of bacterial growth incubated for 24 hrs by serial dilution method
Staphylococcus aureus [5] = assay: Antibacterial activity against Staphylococcus aureus NCIM 5257 assessed as inhibition of bacterial growth incubated for 24 hrs by serial broth dilution method
Escherichia coli [6] = assay: Antibacterial activity against Escherichia coli NCIM 2065 assessed as inhibition of bacterial growth incubated for 24 hrs by serial dilution method
Pseudomonas aeruginosa [7] = assay: Antibacterial activity against Pseudomonas aeruginosa NCIM 5210 assessed as inhibition of bacterial growth incubated for 24 hrs by serial dilution method
Aspergillus niger = assay: Antifungal activity against Aspergillus niger NCIM 1317 assessed as inhibition of fungal growth incubated for 48 hrs by serial dilution method
Candida albicans [8] = assay: Antifungal activity against Candida albicans NCIM 3628 assessed as inhibition of fungal growth incubated for 48 hrs by serial dilution method
Escherichia coli [9] = assay: Antibacterial activity against Escherichia coli assessed as inhibition of bacterial growth measured per 100 uL incubated for 24 hrs by agar well diffusion method
Bacillus subtilis [10] = assay: Antibacterial activity against Bacillus subtilis assessed as inhibition of bacterial growth measured per 100 uL incubated for 24 hrs by agar well diffusion method
Staphylococcus aureus [11] = assay: Antibacterial activity against Staphylococcus aureus assessed as inhibition of bacterial growth measured per 100 uL incubated for 24 hrs by agar well diffusion method
Pseudomonas aeruginosa [12] = assay: Antibacterial activity against Pseudomonas aeruginosa assessed as inhibition of bacterial growth measured per 100 uL incubated for 24 hrs by agar well diffusion method
Saccharomyces cerevisiae = assay: Antifungal activity against Saccharomyces cerevisiae assessed as inhibition of fungal growth incubated measured per 100 uL incubated for 24 hrs by agar well diffusion method
Candida albicans [13] = assay: Antifungal activity against Candida albicans assessed as inhibition of fungal growth incubated measured per 100 uL incubated for 24 hrs by agar well diffusion method

| Compound | MIC (Escherichia coli [1]) [µg/mL] | MIC (Pseudomonas aeruginosa [2]) [µg/mL] | MIC (Klebsiella pneumoniae) [µg/mL] | MIC (Bacillus subtilis [4]) [µg/mL] | MIC (Enterococcus faecalis) [µg/mL] | MIC (Staphylococcus aureus [5]) [µg/mL] | MIC (Escherichia coli [6]) [µg/mL] | MIC (Pseudomonas aeruginosa [7]) [µg/mL] | MIC (Escherichia coli [9]) [µg] | MIC (Bacillus subtilis [10]) [µg] | MIC (Staphylococcus aureus [11]) [µg] | MIC (Pseudomonas aeruginosa [12]) [µg] | MIC (Saccharomyces cerevisiae) [µg] | MIC (Candida albicans [13]) [µg] | further results |
| --- | --- | --- | --- | --- | --- | --- | --- | --- | --- | --- | --- | --- | --- | --- | --- |
| O=C(NO)[C@@H]1CN(c2ccc(C#CC#CC3CC3)cc2)C(=O)O1 | 0.03 (≈ 0.0967 µM) | > 10 |  |  |  |  |  |  |  |  |  |  |  |  |  |
| CCCN1C(=O)C(N2C(=O)OCC2Cc2ccc(/N=C/c3ccccc3)cc2)C1c1ccc(OC)cc1OC (stereo not drawn) |  |  |  |  |  |  |  |  |  |  |  |  |  |  | zone of inhibition at 100 µg/mL (Bacillus subtilis [3]): 23 mm |
| O=C(/C=C/c1ccc([N+](=O)[O-])cc1)c1ccc(-c2ccc(N3C[C@H](CO)OC3=O)cc2)cc1 |  |  | 3.12 (≈ 7.03 µM) | 3.12 (≈ 7.03 µM) | 3.12 (≈ 7.03 µM) | 3.12 (≈ 7.03 µM) | 3.12 (≈ 7.03 µM) | 3.12 (≈ 7.03 µM) |  |  |  |  |  |  |  |
| CS(=O)(=O)CCOc1ccc(C#Cc2ccc(N3C[C@@H](C(=O)NO)OC3=O)cc2)cc1 | 50 (≈ 112 µM) | > 10 |  |  |  |  |  |  |  |  |  |  |  |  |  |
| Nc1ccc(C#CC#Cc2ccc(N3C[C@@H](C(=O)NO)OC3=O)cc2)cc1 | 0.02 (≈ 0.0553 µM) | > 10 |  |  |  |  |  |  |  |  |  |  |  |  |  |
| CS(=O)(=O)CCCOc1ccc(C#Cc2ccc(N3C[C@@H](C(=O)NO)OC3=O)cc2)cc1 | 6.25 (≈ 13.6 µM) | > 10 |  |  |  |  |  |  |  |  |  |  |  |  |  |
| O=C(/C=C/c1ccc(Cl)cc1)c1ccc(-c2ccc(N3C[C@H](CO)OC3=O)cc2)cc1 |  |  | 3.12 (≈ 7.2 µM) | 3.12 (≈ 7.2 µM) | 3.12 (≈ 7.2 µM) | 3.12 (≈ 7.2 µM) | 3.12 (≈ 7.2 µM) | 3.12 (≈ 7.2 µM) |  |  |  |  |  |  |  |
| O=C(NO)[C@@H]1CN(c2ccc(C#CC#CC3CCCC3)cc2)C(=O)O1 | 0.015 (≈ 0.0443 µM) | > 10 |  |  |  |  |  |  |  |  |  |  |  |  |  |
| O=C(NO)[C@@H]1CN(c2ccc(C#CC#Cc3ccccc3)cc2)C(=O)O1 | 0.12 (≈ 0.346 µM) | > 10 |  |  |  |  |  |  |  |  |  |  |  |  |  |

Further lines, with some results ahead:

| MIC (Escherichia coli [1]) [µg/mL] | MIC (Pseudomonas aeruginosa [2]) [µg/mL] | MIC (Klebsiella pneumoniae) [µg/mL] | MIC (Bacillus subtilis [4]) [µg/mL] | MIC (Enterococcus faecalis) [µg/mL] | MIC (Staphylococcus aureus [5]) [µg/mL] | MIC (Escherichia coli [6]) [µg/mL] | MIC (Pseudomonas aeruginosa [7]) [µg/mL] | MIC (Escherichia coli [9]) [µg] | MIC (Bacillus subtilis [10]) [µg] | MIC (Staphylococcus aureus [11]) [µg] | MIC (Pseudomonas aeruginosa [12]) [µg] | MIC (Saccharomyces cerevisiae) [µg] | MIC (Candida albicans [13]) [µg] | Compound | further results |
| --- | --- | --- | --- | --- | --- | --- | --- | --- | --- | --- | --- | --- | --- | --- | --- |
|  |  | 3.12 (≈ 7.52 µM) | 3.12 (≈ 7.52 µM) | 3.12 (≈ 7.52 µM) | 3.12 (≈ 7.52 µM) | 3.12 (≈ 7.52 µM) | 3.12 (≈ 7.52 µM) |  |  |  |  |  |  | O=C(/C=C/c1ccccc1O)c1ccc(-c2ccc(N3C[C@H](CO)OC3=O)cc2)cc1 |  |
|  |  | 3.12 (≈ 7.49 µM) | 3.12 (≈ 7.49 µM) | 3.12 (≈ 7.49 µM) | 3.12 (≈ 7.49 µM) | 3.12 (≈ 7.49 µM) | 3.12 (≈ 7.49 µM) |  |  |  |  |  |  | O=C(/C=C/c1cccc(F)c1)c1ccc(-c2ccc(N3C[C@H](CO)OC3=O)cc2)cc1 | MIC (Aspergillus niger): 12.5 µg/mL (≈ 29.9 µM); MIC (Candida albicans [8]): 12.5 µg/mL (≈ 29.9 µM) |
|  |  |  |  |  |  |  |  | 12.5 | 12.5 | 12.5 | 12.5 | 12.5 | 12.5 | O=C1NC(Cc2ccc(Nc3nc(-c4cccc(Cl)c4)cs3)cc2)CO1 (stereo not drawn) |  |
|  |  |  |  |  |  |  |  | 12.5 | 12.5 | 12.5 | 12.5 | 12.5 | 12.5 | O=C1NC(Cc2ccc(Nc3nc(-c4ccc(F)cc4)cs3)cc2)CO1 (stereo not drawn) |  |
| 50 (≈ 168 µM) | > 10 |  |  |  |  |  |  |  |  |  |  |  |  | O=C(NO)[C@@H]1CN(c2ccc(-c3ccccc3)cc2)C(=O)O1 |  |
|  |  | 3.12 (≈ 7.49 µM) | 3.12 (≈ 7.49 µM) | 3.12 (≈ 7.49 µM) | 3.12 (≈ 7.49 µM) | 3.12 (≈ 7.49 µM) | 3.12 (≈ 7.49 µM) |  |  |  |  |  |  | O=C(/C=C/c1ccccc1F)c1ccc(-c2ccc(N3C[C@H](CO)OC3=O)cc2)cc1 | MIC (Aspergillus niger): 12.5 µg/mL (≈ 29.9 µM); MIC (Candida albicans [8]): 12.5 µg/mL (≈ 29.9 µM) |
|  |  |  |  |  |  |  |  | 12.5 | 6.25 | 6.25 | 12.5 | 12.5 | 12.5 | O=C1NC(Cc2ccc(Nc3nc(-c4ccc(Br)cc4)cs3)cc2)CO1 (stereo not drawn) |  |
|  |  |  |  |  |  |  |  | 12.5 | 6.25 | 6.25 | 12.5 | 12.5 | 12.5 | O=C1NC(Cc2ccc(Nc3nc(-c4ccc([N+](=O)[O-])cc4)cs3)cc2)CO1 (stereo not drawn) |  |
|  |  | 3.12 (≈ 7.49 µM) | 3.12 (≈ 7.49 µM) | 3.12 (≈ 7.49 µM) | 3.12 (≈ 7.49 µM) | 3.12 (≈ 7.49 µM) | 3.12 (≈ 7.49 µM) |  |  |  |  |  |  | O=C(/C=C/c1ccc(F)cc1)c1ccc(-c2ccc(N3C[C@H](CO)OC3=O)cc2)cc1 | MIC (Aspergillus niger): 12.5 µg/mL (≈ 29.9 µM); MIC (Candida albicans [8]): 12.5 µg/mL (≈ 29.9 µM) |
|  |  |  |  |  |  |  |  | 12.5 | 12.5 | 12.5 | 12.5 | 12.5 | 12.5 | O=C1NC(Cc2ccc(Nc3nc(-c4ccccc4F)cs3)cc2)CO1 (stereo not drawn) |  |
|  |  |  |  |  |  |  |  | 12.5 | 25 | 6.25 | 12.5 | 12.5 | 12.5 | O=C1NC(Cc2ccc(Nc3nc(-c4ccc5ccccc5c4)cs3)cc2)CO1 (stereo not drawn) |  |
